# Test results reported in ChEMBL document CHEMBL1201862, “PubChem BioAssay data set” (2004).
# The source made the active and inactive calls.
# Tests used:
# [1] = biological target: T1, Kappa-type opioid receptor (Homo sapiens, UniProt P41145); test: SAR analysis of small molecule antagonists of the kappa opioid receptor via a luminescent beta-arrestin assay - Set 5. [Related pubchem assays (depositor defined):AID1778, AID1785]; assay type: functional
# [2] = biological target: T1, Kappa-type opioid receptor; test: SAR analysis of small molecule antagonists of the kappa opioid receptor via a luminescent beta-arrestin assay - Set 4. [Related pubchem assays (depositor defined):AID1777, AID1778, AID1785, AID1786, AID1966, AID2133, AID2136, AID2285]; assay type: functional
# [3] = biological target: T2, Small ubiquitin-related modifier 1 (Homo sapiens, UniProt P63165); test: inhibitors of SUMO1 peptide binding, dose response, biochemical, fluorescence polarization, uHTS hits (AID 624382); assay type: functional; settings: read-out: IC50_Mean
# [4] = biological target: T2, Small ubiquitin-related modifier 1; test: inhibitors of SUMO1 partner interactions, dose response, biochemical, FRET (AID 624383); assay type: functional; settings: read-out: IC50_Mean
# [5] = biological target: T3, Tyrosine-protein phosphatase non-receptor type 22 (Homo sapiens, UniProt Q9Y2R2); test: SAR LYP1 Fluorescent Assay using OMFP substrate for In Vitro dose response studies - Set 3. [Related pubchem assays (depositor defined):AID1779, AID1784, AID2140, AID2686]; assay type: functional
# T3 sequence (Q9Y2R2 whole entry): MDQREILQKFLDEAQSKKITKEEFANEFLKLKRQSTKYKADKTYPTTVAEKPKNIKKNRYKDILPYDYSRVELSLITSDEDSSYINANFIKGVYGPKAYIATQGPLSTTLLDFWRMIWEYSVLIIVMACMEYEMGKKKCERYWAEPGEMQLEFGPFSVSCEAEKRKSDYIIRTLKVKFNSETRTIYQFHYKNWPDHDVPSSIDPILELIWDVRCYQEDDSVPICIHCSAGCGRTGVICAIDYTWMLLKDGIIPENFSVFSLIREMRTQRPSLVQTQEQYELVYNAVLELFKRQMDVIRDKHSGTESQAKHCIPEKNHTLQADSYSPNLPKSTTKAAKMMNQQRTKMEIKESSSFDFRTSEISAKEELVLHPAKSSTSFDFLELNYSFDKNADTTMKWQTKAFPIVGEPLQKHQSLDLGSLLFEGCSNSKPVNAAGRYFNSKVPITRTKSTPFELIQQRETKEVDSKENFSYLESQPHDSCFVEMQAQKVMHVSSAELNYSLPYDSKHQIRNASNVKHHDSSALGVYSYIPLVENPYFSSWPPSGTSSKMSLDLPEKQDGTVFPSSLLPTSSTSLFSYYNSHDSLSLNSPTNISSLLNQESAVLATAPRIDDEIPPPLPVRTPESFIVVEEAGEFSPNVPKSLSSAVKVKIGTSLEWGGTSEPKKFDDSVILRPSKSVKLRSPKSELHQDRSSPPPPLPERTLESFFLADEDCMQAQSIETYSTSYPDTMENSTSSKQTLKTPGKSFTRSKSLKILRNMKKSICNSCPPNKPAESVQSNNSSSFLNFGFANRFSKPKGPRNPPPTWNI
# SUMO-activating enzyme [6] = biological target: T4, SUMO-activating enzyme (Homo sapiens, UniProt Q9UBT2); test: inhibitors of in vitro SUMOylation cascade, primary screen, biochemical, HTRF, uHTS (AID 2006); assay type: protein-complex assay
# [7] = biological target: T3, Tyrosine-protein phosphatase non-receptor type 22; test: LYP (PTPN22) phosphatase inhibitor potency, SAR follow-up, biochemical, pCAP fluorogenic substrate, fluorescence, set 3 (AID 449727); assay type: functional
# SUMO-activating enzyme [8] = biological target: T4, SUMO-activating enzyme; test: SUMOylation inhibitor hit validation, confirmation, SUMOylation inhibitor project, biochemical, AlphaScreen (AID 2018); assay type: functional
# [9] = biological target: T3, Tyrosine-protein phosphatase non-receptor type 22; test: SAR LYP1 Fluorescent Assay using pCAP substrate for In Vitro dose response studies - Set 2. [Related pubchem assays (depositor defined):AID1779, AID1784, AID2135, AID449727]; assay type: functional
# [10] = biological target: T5, Tyrosine-protein phosphatase non-receptor type 7 (Homo sapiens, UniProt P35236); test: HePTP (PTPN7) phosphatase inhibitor potency, SAR follow-up, biochemical, set 2 (AID 449736); assay type: functional
# T5 sequence (P35236 whole entry): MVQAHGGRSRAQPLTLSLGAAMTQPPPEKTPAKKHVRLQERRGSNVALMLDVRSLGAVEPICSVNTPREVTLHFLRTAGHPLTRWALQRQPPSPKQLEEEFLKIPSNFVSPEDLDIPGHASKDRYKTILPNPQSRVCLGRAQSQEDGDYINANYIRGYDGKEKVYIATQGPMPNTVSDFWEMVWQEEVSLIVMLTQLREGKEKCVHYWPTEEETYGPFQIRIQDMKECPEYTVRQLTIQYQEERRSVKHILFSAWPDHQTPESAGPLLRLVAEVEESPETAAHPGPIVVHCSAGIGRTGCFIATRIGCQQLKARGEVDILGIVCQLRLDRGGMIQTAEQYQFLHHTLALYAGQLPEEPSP
# [11] = biological target: T6, Tyrosine-protein phosphatase non-receptor type 12 (Homo sapiens, UniProt Q05209); test: SAR Selectivity Analysis of small molecule inhibitors of PEST using pCAP in a fluorescence assay. [Related pubchem assays (depositor defined):AID1779, AID1784, AID2135]; assay type: functional
# T6 sequence (Q05209 whole entry): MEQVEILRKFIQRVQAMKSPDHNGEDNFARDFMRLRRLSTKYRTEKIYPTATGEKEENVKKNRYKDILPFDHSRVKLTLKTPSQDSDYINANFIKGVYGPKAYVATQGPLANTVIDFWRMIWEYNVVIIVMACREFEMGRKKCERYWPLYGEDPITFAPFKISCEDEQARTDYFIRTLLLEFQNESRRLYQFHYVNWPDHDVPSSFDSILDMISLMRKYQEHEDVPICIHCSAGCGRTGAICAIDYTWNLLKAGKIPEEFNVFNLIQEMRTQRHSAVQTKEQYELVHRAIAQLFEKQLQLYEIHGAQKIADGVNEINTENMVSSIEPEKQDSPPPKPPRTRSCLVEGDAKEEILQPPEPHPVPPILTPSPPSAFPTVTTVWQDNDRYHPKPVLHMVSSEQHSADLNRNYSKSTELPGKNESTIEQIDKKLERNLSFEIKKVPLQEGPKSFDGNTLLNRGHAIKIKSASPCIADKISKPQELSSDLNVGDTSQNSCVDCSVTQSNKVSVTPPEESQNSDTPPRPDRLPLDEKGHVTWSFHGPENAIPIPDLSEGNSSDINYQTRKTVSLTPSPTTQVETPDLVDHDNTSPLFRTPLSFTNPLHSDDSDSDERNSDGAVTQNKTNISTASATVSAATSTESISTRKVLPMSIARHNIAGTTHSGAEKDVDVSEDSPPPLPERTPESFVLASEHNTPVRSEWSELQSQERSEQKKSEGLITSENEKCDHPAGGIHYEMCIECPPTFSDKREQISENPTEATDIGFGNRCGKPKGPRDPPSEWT
# [12] = biological target: T3, Tyrosine-protein phosphatase non-receptor type 22; test: SAR LYP1 Fluorescent Assay using OMFP substrate for In Vitro dose response studies - Set 2. [Related pubchem assays (depositor defined):AID1779, AID1784, AID2140, AID449726, AID488869]; assay type: functional
# [13] = inhibitors of SNCA 5'UTR-driven reporter translation, confirmation, H4 neuroglioma cells, luminescence (AID 1988); assay type: functional, cell-based
# [14] = Luminescence Cell-Based Dose Retest to Confirm Activators of 5'UTR Stem-Loop Driven Alpha-Synuclein mRNA Translation in H4 Neuroglioblastoma Cells. [Related pubchem assays (depositor defined):AID1813, AID1829]; assay type: functional
# [15] = inhibitors of firefly luciferase expression or activity, dose response, H4 neuroglioma cells, luminescence (AID 1990); assay type: functional, cell-based
# [16] = Luminescence Cell-Based Dose HTS Response to Identify Inhibitors of 5'UTR Stem-Loop Driven Prion Protein mRNA Translation in H4-C Neuroglioblastoma Cells. [Related pubchem assays (depositor defined):AID1814, AID1827]; assay type: functional
# [17] = ELISA Cell-Based Dose Response to Identify Inhibitors of Alpha-Synuclein Translation in SH-SY5Y Cells. [Related pubchem assays: 1813 (Primary HTS), 1827 (Project Summary)]; assay type: functional
# [18] = Luminescence Cell-Based Dose Response HTS to Identify Inhibitors of Luciferase Translation or Activity in H4-C Neuroglioblastoma Cells. [Related pubchem assays: 1813 (Primary HTS), 1827 (Project Summary)]; assay type: functional
# [19] = Western Blot Cell-Based Dose Response to Identify Inhibitors of […] Alpha-Synuclein Translation in H4 Cells. [Related pubchem assays: 1827 (Project Summary), 1813 (Primary HTS)]
# [20] = biological target: T7, Heat shock factor protein 1 (Mus musculus, UniProt P38532); test: HSF1 potentiators in luciferase reporter cells, confirmation, cell-based, NIH3T3, luminescence, dose retest (AID 435004); assay type: functional;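 also: stress induced by proteasome inhibitor MG132 added 30 min after compound; luciferase reporter driven by HSF1 response element in NIH3T3 cells; actives raise luminescence as potentiators of the MG132 stress response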
# T7 sequence (P38532 whole entry): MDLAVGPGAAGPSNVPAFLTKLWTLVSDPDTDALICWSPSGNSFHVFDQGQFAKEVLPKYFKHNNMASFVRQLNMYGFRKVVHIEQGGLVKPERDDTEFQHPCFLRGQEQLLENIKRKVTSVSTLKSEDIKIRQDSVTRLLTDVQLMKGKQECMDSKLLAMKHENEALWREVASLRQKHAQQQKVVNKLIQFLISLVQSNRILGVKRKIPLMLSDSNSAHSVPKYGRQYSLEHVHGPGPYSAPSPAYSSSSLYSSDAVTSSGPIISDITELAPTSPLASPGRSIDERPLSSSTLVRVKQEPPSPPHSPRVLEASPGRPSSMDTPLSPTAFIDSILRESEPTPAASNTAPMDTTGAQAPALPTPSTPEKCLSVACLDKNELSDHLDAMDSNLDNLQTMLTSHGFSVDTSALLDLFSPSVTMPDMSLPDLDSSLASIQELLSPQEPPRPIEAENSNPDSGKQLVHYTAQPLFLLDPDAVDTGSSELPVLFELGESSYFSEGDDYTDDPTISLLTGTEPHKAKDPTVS
# [21] = Luminescence Cell-Based Dose Confirmation HTS to Identify Inhibitors of 5'UTR Stem-Loop Driven Alpha-Synuclein mRNA Translation in H4 Neuroglioblastoma Cells. [Related pubchem assays: 1827 (Project Summary), 1813 (Primary HTS)]; assay type: functional
# [22] = Luminescence Cell-Based Dose Response HTS to Identify Inhibitors of 5'UTR Stem-Loop Driven Prion Protein mRNA Translation in H4 Neuroglioblastoma Cells. [Related pubchem assays: 1827 (Project Summary), 1813 (Primary HTS)]; assay type: functional
# [23] = biological target: Voltage-dependent T-type calcium channel subunit alpha-1H (Homo sapiens, UniProt O95180); test: Cav3.2 T-type channel inhibitors, synthesized analogs, SAR follow-up, cell-based, synthetic library set 2, HEK293 HH8, Fluo-4 (AID 493023); assay type: functional
# [24] = biological target: Intestinal-type alkaline phosphatase (Homo sapiens, UniProt P09923); test: human intestinal alkaline phosphatase activators, dose response, biochemical, luminescence, uHTS hits (AID 463120); assay type: functional
# [25] = biological target: T8, Sentrin-specific protease 1 (Homo sapiens, UniProt Q9P0U3); test: Dose response confirmation of small molecule inhibitors of the catalytic domain of the SUMO protease, SENP1 in a FRET assay.; assay type: functional; settings: read-out: IC50_Mean
# T8 sequence (Q9P0U3 whole entry): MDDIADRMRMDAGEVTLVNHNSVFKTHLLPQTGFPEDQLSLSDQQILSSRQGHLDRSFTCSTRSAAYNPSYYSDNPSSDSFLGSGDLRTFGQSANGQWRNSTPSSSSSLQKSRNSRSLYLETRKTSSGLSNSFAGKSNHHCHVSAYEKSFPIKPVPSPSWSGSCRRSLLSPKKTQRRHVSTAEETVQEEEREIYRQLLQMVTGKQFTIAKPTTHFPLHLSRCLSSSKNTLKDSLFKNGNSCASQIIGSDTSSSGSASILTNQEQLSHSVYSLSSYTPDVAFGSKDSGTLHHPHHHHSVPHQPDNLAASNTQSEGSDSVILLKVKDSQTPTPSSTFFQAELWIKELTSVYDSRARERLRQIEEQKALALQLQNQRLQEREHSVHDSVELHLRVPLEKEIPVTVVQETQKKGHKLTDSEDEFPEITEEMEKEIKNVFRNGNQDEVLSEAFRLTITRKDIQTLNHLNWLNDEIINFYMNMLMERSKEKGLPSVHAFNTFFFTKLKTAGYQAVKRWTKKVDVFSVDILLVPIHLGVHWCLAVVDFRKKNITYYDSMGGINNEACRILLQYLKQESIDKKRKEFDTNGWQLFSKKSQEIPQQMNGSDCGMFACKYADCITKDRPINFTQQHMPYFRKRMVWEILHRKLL
# [26] = biological target: T8, Sentrin-specific protease 1; test: potency of human SENP1 inhibitors, dose response, biochemical, kinetic FRET (AID 651697); assay type: functional; settings: read-out: IC50_Mean
# T2 sequence (P63165 whole entry): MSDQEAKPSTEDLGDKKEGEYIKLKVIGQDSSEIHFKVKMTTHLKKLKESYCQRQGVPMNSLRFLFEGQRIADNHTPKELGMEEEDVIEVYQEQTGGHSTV
# T1 sequence (P41145 whole entry): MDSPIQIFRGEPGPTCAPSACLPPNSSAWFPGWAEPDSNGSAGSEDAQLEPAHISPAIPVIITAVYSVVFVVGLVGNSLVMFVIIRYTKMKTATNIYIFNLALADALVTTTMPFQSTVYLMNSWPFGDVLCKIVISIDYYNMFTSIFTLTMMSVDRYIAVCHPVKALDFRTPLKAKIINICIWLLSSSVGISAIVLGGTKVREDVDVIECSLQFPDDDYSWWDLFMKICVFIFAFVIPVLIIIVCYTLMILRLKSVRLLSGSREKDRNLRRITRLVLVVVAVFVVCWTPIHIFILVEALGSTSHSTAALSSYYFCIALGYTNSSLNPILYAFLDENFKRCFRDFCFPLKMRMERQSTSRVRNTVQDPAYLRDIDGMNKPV
# T4 sequence (Q9UBE0 whole entry): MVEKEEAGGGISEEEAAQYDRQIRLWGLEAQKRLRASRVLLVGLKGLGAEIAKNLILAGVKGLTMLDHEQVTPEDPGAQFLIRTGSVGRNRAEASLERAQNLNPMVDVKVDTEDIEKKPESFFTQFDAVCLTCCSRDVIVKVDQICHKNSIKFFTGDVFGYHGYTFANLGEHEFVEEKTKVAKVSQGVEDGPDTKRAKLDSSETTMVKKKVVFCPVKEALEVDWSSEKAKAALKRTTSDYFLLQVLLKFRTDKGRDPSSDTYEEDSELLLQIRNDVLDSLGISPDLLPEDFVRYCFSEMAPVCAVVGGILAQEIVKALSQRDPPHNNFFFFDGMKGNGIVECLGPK
# T4 sequence (Q9UBT2 whole entry): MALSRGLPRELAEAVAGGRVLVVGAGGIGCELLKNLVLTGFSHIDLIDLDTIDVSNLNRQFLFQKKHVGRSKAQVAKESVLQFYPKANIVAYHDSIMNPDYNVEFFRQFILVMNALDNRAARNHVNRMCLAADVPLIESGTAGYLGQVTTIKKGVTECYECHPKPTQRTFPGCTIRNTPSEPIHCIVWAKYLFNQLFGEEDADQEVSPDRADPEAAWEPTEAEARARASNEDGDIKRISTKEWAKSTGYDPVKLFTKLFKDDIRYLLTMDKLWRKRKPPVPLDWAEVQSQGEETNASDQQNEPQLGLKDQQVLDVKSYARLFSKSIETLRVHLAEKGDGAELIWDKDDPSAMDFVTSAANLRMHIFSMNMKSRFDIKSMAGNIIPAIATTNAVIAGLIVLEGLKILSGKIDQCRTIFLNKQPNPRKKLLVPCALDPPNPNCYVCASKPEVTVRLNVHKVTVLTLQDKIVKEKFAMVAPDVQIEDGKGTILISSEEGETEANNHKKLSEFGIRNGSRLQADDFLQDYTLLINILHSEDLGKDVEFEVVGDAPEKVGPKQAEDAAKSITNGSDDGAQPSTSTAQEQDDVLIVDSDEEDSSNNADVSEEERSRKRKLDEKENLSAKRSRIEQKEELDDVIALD
# Sequence of Voltage-dependent T-type calcium channel subunit alpha-1H (O95180 whole entry): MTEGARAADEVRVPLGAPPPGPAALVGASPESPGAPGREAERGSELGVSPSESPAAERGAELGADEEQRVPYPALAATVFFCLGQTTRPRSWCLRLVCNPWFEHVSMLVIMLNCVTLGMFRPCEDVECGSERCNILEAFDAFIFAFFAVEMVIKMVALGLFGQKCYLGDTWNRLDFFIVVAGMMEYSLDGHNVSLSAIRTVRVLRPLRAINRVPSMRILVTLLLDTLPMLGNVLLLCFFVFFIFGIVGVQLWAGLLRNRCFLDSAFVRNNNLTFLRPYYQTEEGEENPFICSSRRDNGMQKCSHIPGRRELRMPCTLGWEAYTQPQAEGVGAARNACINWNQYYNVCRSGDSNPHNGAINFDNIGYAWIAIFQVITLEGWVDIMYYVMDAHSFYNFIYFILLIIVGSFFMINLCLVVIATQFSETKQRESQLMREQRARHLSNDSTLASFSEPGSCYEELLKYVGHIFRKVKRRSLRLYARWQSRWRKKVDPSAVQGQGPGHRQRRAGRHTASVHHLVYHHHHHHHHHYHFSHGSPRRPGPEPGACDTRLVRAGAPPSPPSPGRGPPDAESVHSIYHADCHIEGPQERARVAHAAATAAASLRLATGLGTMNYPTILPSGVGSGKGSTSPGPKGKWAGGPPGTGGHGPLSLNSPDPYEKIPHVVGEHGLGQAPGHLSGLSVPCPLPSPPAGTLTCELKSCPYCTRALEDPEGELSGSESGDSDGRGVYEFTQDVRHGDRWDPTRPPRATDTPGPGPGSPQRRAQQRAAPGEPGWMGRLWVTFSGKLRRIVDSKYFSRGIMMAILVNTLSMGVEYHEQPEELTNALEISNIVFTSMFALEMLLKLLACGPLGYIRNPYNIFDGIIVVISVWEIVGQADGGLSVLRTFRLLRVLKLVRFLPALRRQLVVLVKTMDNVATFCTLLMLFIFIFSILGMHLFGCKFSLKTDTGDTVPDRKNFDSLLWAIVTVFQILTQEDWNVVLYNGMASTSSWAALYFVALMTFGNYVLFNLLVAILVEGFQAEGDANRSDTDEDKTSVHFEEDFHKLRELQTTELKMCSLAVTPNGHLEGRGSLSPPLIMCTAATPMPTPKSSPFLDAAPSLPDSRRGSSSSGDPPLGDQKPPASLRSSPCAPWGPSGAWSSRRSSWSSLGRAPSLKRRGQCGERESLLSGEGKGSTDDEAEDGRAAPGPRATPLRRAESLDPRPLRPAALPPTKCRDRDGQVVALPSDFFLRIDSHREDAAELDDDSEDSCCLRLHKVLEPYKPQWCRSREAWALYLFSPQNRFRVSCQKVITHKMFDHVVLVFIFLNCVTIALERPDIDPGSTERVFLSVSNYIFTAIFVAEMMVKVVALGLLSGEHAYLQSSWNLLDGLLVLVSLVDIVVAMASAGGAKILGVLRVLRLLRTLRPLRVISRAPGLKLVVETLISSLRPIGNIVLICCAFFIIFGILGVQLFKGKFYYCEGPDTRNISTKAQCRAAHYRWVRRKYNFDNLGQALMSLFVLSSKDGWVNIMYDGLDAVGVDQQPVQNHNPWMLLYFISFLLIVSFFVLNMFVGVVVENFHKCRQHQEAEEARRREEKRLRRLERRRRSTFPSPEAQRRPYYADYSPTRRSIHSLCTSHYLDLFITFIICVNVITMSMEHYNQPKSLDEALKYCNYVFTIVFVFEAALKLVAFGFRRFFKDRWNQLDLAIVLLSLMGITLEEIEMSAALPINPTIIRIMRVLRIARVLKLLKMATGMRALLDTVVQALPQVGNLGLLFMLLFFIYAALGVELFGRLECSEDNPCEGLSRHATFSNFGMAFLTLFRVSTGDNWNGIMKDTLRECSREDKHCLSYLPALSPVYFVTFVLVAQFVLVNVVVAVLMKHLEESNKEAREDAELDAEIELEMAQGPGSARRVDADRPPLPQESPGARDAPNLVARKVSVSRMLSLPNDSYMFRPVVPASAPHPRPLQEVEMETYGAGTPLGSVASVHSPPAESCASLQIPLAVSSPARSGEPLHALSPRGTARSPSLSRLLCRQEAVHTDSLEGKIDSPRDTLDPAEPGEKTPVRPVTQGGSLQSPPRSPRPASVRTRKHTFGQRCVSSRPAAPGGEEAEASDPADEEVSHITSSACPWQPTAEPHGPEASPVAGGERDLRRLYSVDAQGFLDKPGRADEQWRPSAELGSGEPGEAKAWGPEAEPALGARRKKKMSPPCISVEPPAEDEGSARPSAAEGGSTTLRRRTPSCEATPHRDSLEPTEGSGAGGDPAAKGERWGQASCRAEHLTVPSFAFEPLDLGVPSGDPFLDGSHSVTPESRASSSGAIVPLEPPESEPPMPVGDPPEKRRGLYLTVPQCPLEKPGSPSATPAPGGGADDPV
# Sequence of Intestinal-type alkaline phosphatase (P09923 whole entry, the tested form may be a part): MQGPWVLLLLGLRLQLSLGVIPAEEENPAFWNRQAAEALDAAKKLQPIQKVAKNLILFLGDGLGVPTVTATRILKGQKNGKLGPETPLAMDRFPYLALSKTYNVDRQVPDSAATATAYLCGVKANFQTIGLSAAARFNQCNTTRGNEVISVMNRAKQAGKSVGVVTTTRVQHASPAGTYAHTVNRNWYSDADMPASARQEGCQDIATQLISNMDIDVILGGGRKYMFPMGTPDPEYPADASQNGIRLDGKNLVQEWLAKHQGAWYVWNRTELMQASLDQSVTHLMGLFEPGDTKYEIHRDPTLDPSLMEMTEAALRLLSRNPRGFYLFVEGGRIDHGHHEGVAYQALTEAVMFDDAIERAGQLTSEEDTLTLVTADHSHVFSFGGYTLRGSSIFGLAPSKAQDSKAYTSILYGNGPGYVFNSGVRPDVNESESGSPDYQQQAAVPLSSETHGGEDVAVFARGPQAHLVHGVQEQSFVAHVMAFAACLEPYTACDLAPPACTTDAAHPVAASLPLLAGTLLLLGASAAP
structure (smiles),measurement,setting,value
Cc1ccc(S(=O)(=O)NCc2ccc(C(=O)NCCN(C)[C@H](C)c3ccccc3)cc2)cc1,IC50,[1],2.4 µM (active)
same,IC50,[2],3.38 µM (active)
COc1cc(/C=C(\C#N)C(=O)Nc2cccc(C(=O)O)c2)ccc1OCc1ccc(Cl)cc1,IC50,[3],> 66.6 µM (inactive)
same,IC50,[4],13 µM (active)
same,IC50,[5],2.6 µM (active)
same,IC50,SUMO-activating enzyme [6],17.5 µM (active)
same,IC50,[7],6.59 µM (active)
same,IC50,SUMO-activating enzyme [8],3.61 µM (active)
same,IC50,[9],6.89 µM (active)
same,IC50,[10],0.557 µM (active)
same,IC50,[11],2.6 µM (active)
same,IC50,[12],4.78 µM (active)
CN(C)c1nc(N)nc(CSc2nnnn2-c2cccc3ccccc23)n1,EC50,[13],3.5 µM (active)
same,EC50,[14],1.81 µM (inconclusive)
same,EC50,[15],> 120 µM (not active)
same,EC50,[16],> 195 µM (inactive)
same,EC50,[17],< 0.006 µM (active)
same,EC50,[18],> 195 µM (not active)
same,EC50,[19],< 1 µM (active)
same,EC50,[20],> 260 µM (inactive)
same,EC50,[21],1.81 µM (active)
same,EC50,[22],> 120 µM (not active)
O=C(N[C@H]1CCCN(Cc2ccccc2)C1)c1cc(Cl)cc(Cl)c1,EC50,[23],10 µM (active)
O=C(NNc1nc2c(F)cccc2s1)c1cc(=O)c2ccccc2o1,EC50,[24],10.3 µM (active)
same,IC50,[25],7.06 µM (active)
same,IC50,[26],6.67 µM (active)
